Measured values: patent US20070232577A1, “Synthetic pentacyclic triterpenoids and derivatives of betulinic acid and betulin” (Advanced Life Sciences, Inc., priority 2006, published 2007)
Values after ≈ are worked out from the molar mass of the structure shown.

Key:
A-375 (melanoma) = experiment: MTS cell viability assay, A-375; type: cell-based; conditions: Homo sapiens, 72 h
Protocol: (§1) All treatments were performed in triplicate. […] Cells were incubated at 37° C. for 72 h.

SK-MEL-2 (melanoma) = experiment: MTS cell viability assay, SK-MEL-2; conditions: Homo sapiens, SK-MEL-2, 72 h, read-out: IC50 SK-MEL-2
Protocol: (§2) Cells were plated, the evening before treatment, for each treatment on 96-well plates (1×10^4 cells/well) in 100 μL volume per well. Drug solutions were prepared by diluting each test compound in DSMO (10 mM) with the appropriate cell growth media for each individual cell line, or in “Universal Media” if several cell lines were to be assayed in parallel, immediately prior to cell treatment. Universal Media consisted of 5 mL sodium pyruvate (100×liquid stock, CellGro), 5 mL glucose (100×, 45% liquid stock, CellGro), 5 mL Penicillin/Streptomycin (100×liquid stock, CellGro), 10 mL sodium bicarbonate (50×liquid stock, CellGro), 25 mL Fetal Calf Serum, 1.25 mL insulin (4 mg/mL, Gibco) and 449 mL RPMI media with 2 mM glutamine for a total volume of 500 mL. Cells were treated by aspirating media from each well and adding 80 μL of each drug solution to the attached cells. All treatments were performed in triplicate. Growth media (80 μL) were added to 3 blank wells (no cells) to measure background from the growth media Growth media alone (no DMSO or test compond) was added to 2 wells containing cells to measure the baseline MTS activity and vehicle (DMSO) control solutions were also included to monitor basal toxicity from DMSO. Cells were incubated at 37° C. for 72 h. MTS reagent (per 96-well plate) were prepared by combining 2 mL of MTS working solution (Cell Titer AQueous Non-Radioactive Cell Proliferation Assay, Promega, cat#G1112), 100 μL of 0.92 mg/mL phenazine methosulfate/Dulbecco's PBS and 2.1 mL growth media. MTS reagent (40 μL) were added to each well and incubated at 37° C. for 1.5 to 4 h. Plates were gently shaken by hand until solution in each well appeared homogenous. Absorbances at 490 nm were measured on a plate reader at multiple time points following the addition of MTS reagent for each plate. Triplicate absorbance (490 nm) measurements were averaged following background (no cell) subtraction for each drug concentration. Percent Cell Viability was calculated for each drug concentration using the following equation: {[Absorbances(drug treated)]/[Absorbances(DMSO treated)]}×100%
(§3) Percent viability (y-axis) was plotted against drug concentration (x-axis) and the resulting graph was used to determine the 50% inhibitory concentration (IC50) for each drug.

[1] = test system: OVCAR-3 (ovarian carcinoma); experiment: MTS cell viability assay, OVCAR-3; type: cell-based; conditions: Homo sapiens, 72 h
Protocol: as §1

Daoy (glioblastoma) = experiment: MTS cell viability assay, Daoy; conditions: for IC50: Homo sapiens, Daoy, 72 h, read-out: IC50 Daoy
Protocol: as §2, §3

HT-29 (colon carcinoma) = experiment: MTS cell viability assay, HT-29; type: cell-based; conditions: Homo sapiens, 72 h
Protocol: as §1

LN-229 (glioblastoma) = experiment: MTS cell viability assay, LN-229; type: cell-based; conditions: Homo sapiens, 72 h
Protocol: as §1

MCF-7 (breast carcinoma) = experiment: MTS cell viability assay, MCF-7; type: cell-based; conditions: Homo sapiens, MCF7, 72 h
Protocol: as §1

Row | Structure (SMILES) | IC50 (A-375 (melanoma)) [µg/mL] | IC50 (SK-MEL-2 (melanoma)) [µg/mL] | IC50 [1] [µg/mL] | IC50 (Daoy (glioblastoma)) [µg/mL] | IC50 (HT-29 (colon carcinoma)) [µg/mL] | IC50 (LN-229 (glioblastoma)) [µg/mL] | IC50 (MCF-7 (breast carcinoma)) [µg/mL] | selectivity of cytotoxicity for Daoy (in words) (Daoy (glioblastoma); MTS assay, Daoy versus other cell lines)
1 | C=C(C)[C@@H]1CC[C@]2(C(=O)O)CC[C@]3(C)[C@H](CC[C@@H]4[C@@]5(C)CC[C@H](O)C(C)(C)[C@@H]5CC[C@]43C)[C@@H]12 [Compound 1, (1R,3aS,5aR,5bR,7aR,9S,11aR, 11bR,13aR,13bR)-9-hydroxy-5a,5b,8,8,11a-pentamethyl-1-(prop-1-en-2-yl)icosahydro-1H-cyclopenta[a]chrysene-3a-carboxylic acid, reference compound] | 51 (≈ 112 µM) | 33.2 ± 3.77 (≈ 72.7 µM) | 59 ± 4.58 (≈ 129 µM) | 31.3 ± 2.28 (≈ 68.5 µM) | 37 (≈ 81 µM) | 61 (≈ 134 µM) | 50 (≈ 109 µM) | 
2 | C=C(C)[C@@H]1CC[C@]2(COC(=O)CBr)CC[C@]3(C)[C@H](CC[C@@H]4[C@@]5(C)CCC(=O)C(C)(C)[C@@H]5CC[C@]43C)[C@@H]12 [Compound 18, ((1R,3aS,5aR,5bR,7aR,11aR,11bR,13aR,13bR)-5a,5b,8,8,11a-pentamethyl-9-oxo-1-(prop-1-en-2-yl)icosahydro-1H-cyclopenta[a]chrysen-3a-yl)methyl 2-bromoacetate] | 14 (≈ 24.9 µM) | 42 (≈ 74.8 µM) | 8 (≈ 14.2 µM) | < 2 | 36 (≈ 64.1 µM) |  | 48 (≈ 85.5 µM) | 
3 | C=C(C)[C@@H]1CC[C@]2(COC(=O)COC)CC[C@]3(C)[C@H](CC[C@@H]4[C@@]5(C)CC[C@H](OC(C)=O)C(C)(C)[C@@H]5CC[C@]43C)[C@@H]12 [Compound 19, ((1R,3aS,5aR,5bR,7aR,9S,11aR,11bR,13aR,13b R)-9-acetoxy-5a,5b,8,8,11a-pentamethyl-1-(prop-1-en-2-yl)icosahydro-1H-cyclopenta[a]chrysen-3a-yl)methyl 2-methoxyacetate] | 7 (≈ 12.6 µM) | 6 (≈ 10.8 µM) | > 75 | 7 (≈ 12.6 µM) | > 75 | > 75 | > 75 | 
4 | C=C(C)[C@@H]1CC[C@]2(COC(=O)COCC)CC[C@]3(C)[C@H](CC[C@@H]4[C@@]5(C)C=C(C#N)C(=O)C(C)(C)[C@@H]5CC[C@]43C)[C@@H]12 [Compound 40, ((1R,3aS,5aR,5bR,7aR,11aR,11bR,13aR,13bR)-10-cyano-5a,5b,8,8,11a-pentamethyl-9-oxo-1-(prop-1-en-2-yl)-2,3,3a,4,5,5a,5b,6,7,7a,8,9,11a,11b,12,13,13a,13b-octadecahydro-1H-cyclopenta[a]chrysen-3a-yl)methyl 2-ethoxyacetate] | 6 (≈ 10.9 µM) | > 10 | 10 (≈ 18.2 µM) | 4 (≈ 7.28 µM) | 10 (≈ 18.2 µM) | 28 (≈ 50.9 µM) | 30 (≈ 54.6 µM) | 
5 | CC(C)[C@@H]1CC[C@]2(CO)CC[C@]3(C)[C@H](CC[C@@H]4[C@@]5(C)Cc6cnoc6C(C)(C)[C@@H]5CC[C@]43C)[C@@H]12 [Compound 49, [(1S,3aS,5aR,5bR,7aR,12aR,12bR,14aR,14bR)-1-isopropyl-5a,5b,8,8,12a-pentamethyl-1,2,3,4,5,5a,5b,6,7,7a,8,12,12a,12b,13,14,14a, 14b-octadecahydro-3aH-cyclopenta[7,8]chryseno[3,2-d]isoxazol-3a-yl]methanol] | 10 (≈ 21.4 µM) | 6 (≈ 12.8 µM) | 50 to 75 (≈ 107 to 160 µM) | 4 (≈ 8.55 µM) | 50 to 75 (≈ 107 to 160 µM) | > 75 | > 75 | 
6 | CC(C)[C@@H]1CC[C@]2(COC(=O)CBr)CC[C@]3(C)[C@H](CC[C@@H]4[C@@]5(C)Cc6cnoc6C(C)(C)[C@@H]5CC[C@]43C)[C@@H]12 [Compound 50, [(1S,3aS,5aR,5bR,7aR,12aR,12bR,14aR,14bR)-1-isopropyl-5a,5b,8,8,12a-pentamethyl-1,2,3,4,5,5a,5b,6,7,7a,8,12,12a,12b,13,14,14a, 14b-octadecahydro-3aH-cyclopenta[7,8]chryseno[3,2-d]isoxazol-3a-yl]methyl bromoacetate] | 25 (≈ 42.5 µM) | > 75 | 42 (≈ 71.3 µM) | 4 (≈ 6.79 µM) | 40 (≈ 67.9 µM) | 48 (≈ 81.5 µM) | 50 (≈ 84.9 µM) | 
7 | CC(C)[C@@H]1CC[C@]2(CO)CC[C@]3(C)[C@H](CC[C@@H]4[C@@]5(C)C=C(C#N)C(=O)C(C)(C)[C@@H]5CC[C@]43C)[C@@H]12 [Compound 55, (1S,3aS,5aR,5bR,7aR,11aR,11bR,13aR,13bR)-3a-(hydroxymethyl)-1-isopropyl-5a,5b,8,8,11a-pentamethyl-9-oxo-2,3,3a,4,5,5a,5b,6,7,7a,8,9,11a,11b,12,13,13a,13b-octadecahydro-1H-cyclopenta[a]chrysene-10-carbonitrile] | 4 (≈ 8.59 µM) |  | 8 (≈ 17.2 µM) |  | 7 (≈ 15 µM) |  | > 75 | 
8 | C=C(C)[C@@H]1CC[C@]2(C=O)CC[C@]3(C)[C@H](CC[C@@H]4[C@@]5(C)CCC(=O)C(C)(C)[C@@H]5CC[C@]43C)[C@@H]12 [Compound 66, (1R,3aS,5aR,5bR,7aR,11aR,11bR,13aR,13bR)-5a,5b,8,8,11a-pentamethyl-9-oxo-1-(prop-1-en-2-yl)icosahydro-1H-cyclopenta[a]chrysene-3a-carbaldehyde] | 15 (≈ 34.2 µM) | 28 (≈ 63.8 µM) | 20 (≈ 45.6 µM) | 6 (≈ 13.7 µM) | 21 (≈ 47.9 µM) | 35 (≈ 79.8 µM) | 38 (≈ 86.6 µM) | selective toxicity towards Daoy
9 | C=C(C)[C@@H]1CC[C@]2(CNCCCl)CC[C@]3(C)[C@H](CC[C@@H]4[C@@]5(C)CC[C@H](O)C(C)(C)[C@@H]5CC[C@]43C)[C@@H]12 [Compound 70, (1R,3aS,5aR,5bR,7aR,9S,11aR,11bR,13aR,13bR)-3a-((2-chloroethylamino)methyl)-5a,5b,8,8,11a-pentamethyl-1-(prop-1-en-2-yl)icosahydro-1H-cyclopenta[a]chrysen-9-ol] | 20 (≈ 39.7 µM) | 35 (≈ 69.4 µM) | 10 (≈ 19.8 µM) | < 2 | 19 (≈ 37.7 µM) |  | 54 (≈ 107 µM) | 
10 | C=C(C)[C@@H]1CC[C@]2(C(=O)O)CC[C@]3(C)[C@H](CC[C@@H]4[C@@]5(C)CCC(NCCO)C(C)(C)[C@@H]5CC[C@]43C)[C@@H]12 (stereo partly drawn) [Compound 77, (1R,3aS,5aR,5bR,7aR,11aR,11bR,13aR,13bR)-9-(2-hydroxyethylamino)-5a,5b,8,8,11a-pentamethyl-1-(prop-1-en-2-yl)icosahydro-1H-cyclopenta[a]chrysene-3a-carboxylic acid] | 14 (≈ 28 µM) | 36 (≈ 72 µM) | 28 (≈ 56 µM) | < 2 | 16 (≈ 32 µM) |  | 35 (≈ 70 µM) | 
11 | CC(C)[C@@H]1CC[C@]2(C(=O)O)CC[C@]3(C)[C@H](CC[C@@H]4[C@@]5(C)CCC(=O)C(C)(C)[C@@H]5CC[C@]43C)[C@@H]12 [Compound 87, (1S,3aS,5aR,5bR,7aR,11aR,11bR,13aR,13bR)-1-isopropyl-5a,5b,8,8,11a-pentamethyl-9-oxoicosahydro-1H-cyclopenta[a]chrysene-3a-carboxylic acid] | 22 (≈ 48.2 µM) | 16 (≈ 35 µM) | 22 (≈ 48.2 µM) | 5 (≈ 10.9 µM) | 35 (≈ 76.6 µM) | 28 (≈ 61.3 µM) | 38 (≈ 83.2 µM) | 
